Laboratory results published in the NIST ThermoML archive (doi:10.1016/j.jct.2015.01.005).

Assay: molar heat capacity at constant pressure
Conditions: 101.33 kPa, Crystal 2, Small (less than 1 g) adiabatic calorimetry

O[C@@H]1[C@@H](O)[C@@H]2OC[C@@H](O2)[C@H]1O [1,6-anhydro-β-D-glucopyranose]
Conditions | molar heat capacity at constant pressure [J/K/mol]
5 K | 0.138
10 K | 1.118
15 K | 3.898
20 K | 7.99
25 K | 12.65
30 K | 17.41
35 K | 22.01
40 K | 26.36
45 K | 30.52
50 K | 34.47
60 K | 41.86
70 K | 48.71
80 K | 55.17
90 K | 61.41
100 K | 67.71
110 K | 74.28
120 K | 79.92
130 K | 85.48
140 K | 91.03
150 K | 96.6
160 K | 102.2
170 K | 107.8
180 K | 113.5
190 K | 119.2
200 K | 125
210 K | 130.9
220 K | 136.9
230 K | 143
240 K | 149.2
250 K | 155.5
260 K | 162
270 K | 168.5
280 K | 175.1
290 K | 181.7
298.15 K | 187.2
300 K | 188.5
310 K | 195.5
320 K | 202.7
330 K | 210.3
340 K | 218.6
350 K | 227.1
360 K | 235.5
370 K | 244
380 K | 252.5
384 K | 255.9
